Columns and labels:
Histamine H1 receptor = Histamine H1 receptor (Homo sapiens, UniProt P35367); details: Compound concentration 10.0 uM
[1] = biological target: Sigma non-opioid intracellular receptor 1 (Homo sapiens) (UniProt Q99720); details: Compound concentration 10.0 uM
[2] = biological target: Muscarinic acetylcholine receptor M4 (Homo sapiens) (UniProt P08173); details: Compound concentration 10.0 uM
[3] = biological target: Histamine H4 receptor (Homo sapiens) (UniProt Q9H3N8); details: Compound concentration 10.0 uM
Sequence of Histamine H4 receptor (Homo sapiens) (Q9H3N8 whole entry): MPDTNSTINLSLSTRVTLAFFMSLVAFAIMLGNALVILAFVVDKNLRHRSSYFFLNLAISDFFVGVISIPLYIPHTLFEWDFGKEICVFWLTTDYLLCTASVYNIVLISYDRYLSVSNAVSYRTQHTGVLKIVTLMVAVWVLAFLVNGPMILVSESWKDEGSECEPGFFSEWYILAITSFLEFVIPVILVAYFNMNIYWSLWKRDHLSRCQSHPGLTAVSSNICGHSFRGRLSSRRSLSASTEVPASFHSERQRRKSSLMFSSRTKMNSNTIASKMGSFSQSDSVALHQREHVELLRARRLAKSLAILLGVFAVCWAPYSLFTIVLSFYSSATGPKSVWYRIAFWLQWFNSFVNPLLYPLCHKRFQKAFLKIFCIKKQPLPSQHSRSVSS

[4] = biological target: GABA-A receptor; anion channel (Rattus norvegicus) (UniProt O09028+P15431+P18506+P18508+P19969+P20236+P23574+P23576+P28471+P28473+P30191+P62813+P63079+P63138+Q91ZM7+Q9ES14); details: Compound concentration 10.0 uM
[5] = biological target: 5-hydroxytryptamine receptor 1B (Homo sapiens, UniProt P28222); details: Compound concentration 10.0 uM
[6] = biological target: D(4) dopamine receptor (Homo sapiens) (UniProt P21917); details: Compound concentration 10.0 uM
[7] = AMPA receptor scintillation proximity binding assay; design: species or system Homo sapiens
Histamine H2 receptor = Histamine H2 receptor (Homo sapiens, UniProt P25021); details: Compound concentration 10.0 uM
[8] = biological target: 5-hydroxytryptamine receptor 1E (Homo sapiens) (UniProt P28566); details: Compound concentration 10.0 uM
[9] = biological target: Alpha-2B adrenergic receptor (Homo sapiens) (UniProt P18089); details: Compound concentration 10.0 uM
Sequence of Alpha-2B adrenergic receptor (Homo sapiens) (P18089 whole entry): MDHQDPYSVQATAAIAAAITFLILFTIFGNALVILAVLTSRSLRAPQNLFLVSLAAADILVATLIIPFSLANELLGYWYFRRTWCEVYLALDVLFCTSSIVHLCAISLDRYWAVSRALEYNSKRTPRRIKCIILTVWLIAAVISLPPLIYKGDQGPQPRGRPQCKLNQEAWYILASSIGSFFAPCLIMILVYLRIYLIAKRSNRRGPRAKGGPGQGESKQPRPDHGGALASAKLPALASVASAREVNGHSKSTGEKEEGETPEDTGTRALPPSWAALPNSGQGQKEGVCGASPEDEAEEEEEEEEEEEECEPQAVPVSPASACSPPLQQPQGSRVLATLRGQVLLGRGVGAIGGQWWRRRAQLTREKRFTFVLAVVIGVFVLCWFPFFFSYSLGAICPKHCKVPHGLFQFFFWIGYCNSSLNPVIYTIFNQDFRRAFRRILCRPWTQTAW

[10] = biological target: 5-hydroxytryptamine receptor 2C (Homo sapiens) (UniProt P28335); details: Compound concentration 10.0 uM
D(1A) dopamine receptor = D(1A) dopamine receptor (Homo sapiens, UniProt P21728); details: Compound concentration 10.0 uM
[11] = biological target: Alpha-2C adrenergic receptor (Homo sapiens) (UniProt P18825); details: Compound concentration 10.0 uM
Sequence of Alpha-2C adrenergic receptor (Homo sapiens) (P18825 whole entry): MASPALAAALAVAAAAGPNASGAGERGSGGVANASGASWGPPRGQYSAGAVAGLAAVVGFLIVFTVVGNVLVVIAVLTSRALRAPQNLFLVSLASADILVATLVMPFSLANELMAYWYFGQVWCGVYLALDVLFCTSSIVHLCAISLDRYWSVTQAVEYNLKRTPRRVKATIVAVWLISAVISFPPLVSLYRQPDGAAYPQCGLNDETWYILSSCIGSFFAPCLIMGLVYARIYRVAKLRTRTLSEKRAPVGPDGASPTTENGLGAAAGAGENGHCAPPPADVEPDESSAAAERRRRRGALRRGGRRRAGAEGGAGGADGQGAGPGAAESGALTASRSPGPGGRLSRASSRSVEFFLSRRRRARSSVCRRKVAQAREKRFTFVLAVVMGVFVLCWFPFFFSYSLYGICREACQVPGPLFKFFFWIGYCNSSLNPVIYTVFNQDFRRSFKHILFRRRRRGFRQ

[12] = biological target: Sodium-dependent serotonin transporter (Homo sapiens, UniProt P31645); details: Compound concentration 10.0 uM
[13] = biological target: 5-hydroxytryptamine receptor 3A (Homo sapiens) (UniProt P46098); details: Compound concentration 10.0 uM
[14] = biological target: Sigma intracellular receptor 2 (Homo sapiens) (UniProt Q5BJF2); details: Compound concentration 10.0 uM
[15] = biological target: 5-hydroxytryptamine receptor 6 (Homo sapiens) (UniProt P50406); details: Compound concentration 10.0 uM
[16] = biological target: Beta-3 adrenergic receptor (Homo sapiens) (UniProt P13945); details: Compound concentration 10.0 uM
[17] = biological target: D(3) dopamine receptor (Homo sapiens) (UniProt P35462); details: Compound concentration 10.0 uM
[18] = biological target: Alpha-1D adrenergic receptor (Homo sapiens) (UniProt P25100); details: Compound concentration 10.0 uM
Sequence of Alpha-1D adrenergic receptor (Homo sapiens) (P25100 whole entry): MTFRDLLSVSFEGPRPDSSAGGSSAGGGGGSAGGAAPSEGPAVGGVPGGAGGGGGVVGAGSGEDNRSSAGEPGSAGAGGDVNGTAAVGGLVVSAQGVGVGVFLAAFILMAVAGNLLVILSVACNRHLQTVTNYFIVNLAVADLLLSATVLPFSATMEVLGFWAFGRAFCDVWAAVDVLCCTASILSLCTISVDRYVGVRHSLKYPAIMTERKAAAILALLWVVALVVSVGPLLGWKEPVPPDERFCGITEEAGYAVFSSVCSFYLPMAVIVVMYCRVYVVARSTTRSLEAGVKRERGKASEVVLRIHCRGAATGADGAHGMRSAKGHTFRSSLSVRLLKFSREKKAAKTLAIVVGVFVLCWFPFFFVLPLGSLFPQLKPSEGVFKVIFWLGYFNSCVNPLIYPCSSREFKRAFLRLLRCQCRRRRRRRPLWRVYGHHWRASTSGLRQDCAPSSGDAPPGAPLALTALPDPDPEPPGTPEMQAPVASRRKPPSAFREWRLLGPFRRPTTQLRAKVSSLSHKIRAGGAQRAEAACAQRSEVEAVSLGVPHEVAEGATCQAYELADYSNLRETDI

[19] = biological target: Delta-type opioid receptor (Homo sapiens, UniProt P41143); details: Compound concentration 10.0 uM
[20] = biological target: Histamine H3 receptor (Homo sapiens) (UniProt Q9Y5N1); details: Compound concentration 10.0 uM
D(2) dopamine receptor = D(2) dopamine receptor (Homo sapiens, UniProt P14416); details: Compound concentration 10.0 uM
[21] = biological target: Alpha-1B adrenergic receptor (Homo sapiens) (UniProt P35368); details: Compound concentration 10.0 uM
[22] = biological target: 5-hydroxytryptamine receptor 2A (Homo sapiens, UniProt P28223); details: Compound concentration 10.0 uM
Sequence of 5-hydroxytryptamine receptor 2A (P28223 whole entry): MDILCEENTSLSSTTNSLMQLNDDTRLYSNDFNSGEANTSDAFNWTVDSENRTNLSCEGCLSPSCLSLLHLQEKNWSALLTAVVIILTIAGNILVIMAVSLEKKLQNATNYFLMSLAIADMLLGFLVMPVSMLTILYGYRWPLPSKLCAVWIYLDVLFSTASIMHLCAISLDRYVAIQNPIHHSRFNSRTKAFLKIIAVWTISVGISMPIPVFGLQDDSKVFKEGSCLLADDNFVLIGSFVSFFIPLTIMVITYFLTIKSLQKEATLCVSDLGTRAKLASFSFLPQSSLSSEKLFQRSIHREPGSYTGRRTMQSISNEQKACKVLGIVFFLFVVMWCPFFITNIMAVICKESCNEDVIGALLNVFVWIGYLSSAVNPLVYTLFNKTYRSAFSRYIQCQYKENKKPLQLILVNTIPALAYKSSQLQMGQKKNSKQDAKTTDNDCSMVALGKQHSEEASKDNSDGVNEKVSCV

[23] = biological target: Alpha-2A adrenergic receptor (Homo sapiens) (UniProt P08913); details: Compound concentration 10.0 uM
[24] = biological target: Beta-1 adrenergic receptor (Homo sapiens, UniProt P08588); details: Compound concentration 10.0 uM
[25] = biological target: 5-hydroxytryptamine receptor 5A (Homo sapiens) (UniProt P47898); details: Compound concentration 10.0 uM
Sequence of 5-hydroxytryptamine receptor 5A (Homo sapiens) (P47898 whole entry): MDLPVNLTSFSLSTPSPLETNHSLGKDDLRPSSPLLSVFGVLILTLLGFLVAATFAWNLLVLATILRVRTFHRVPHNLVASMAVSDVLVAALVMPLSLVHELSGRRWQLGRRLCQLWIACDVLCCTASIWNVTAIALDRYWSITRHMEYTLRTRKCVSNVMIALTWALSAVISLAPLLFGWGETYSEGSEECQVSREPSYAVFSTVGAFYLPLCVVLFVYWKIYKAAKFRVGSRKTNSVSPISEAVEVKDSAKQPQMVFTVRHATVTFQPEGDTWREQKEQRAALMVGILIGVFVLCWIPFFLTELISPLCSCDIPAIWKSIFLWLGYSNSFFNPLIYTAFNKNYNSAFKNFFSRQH

[26] = biological target: 5-hydroxytryptamine receptor 1D (Homo sapiens, UniProt P28221); details: Compound concentration 10.0 uM
Sequence of 5-hydroxytryptamine receptor 1D (P28221 whole entry): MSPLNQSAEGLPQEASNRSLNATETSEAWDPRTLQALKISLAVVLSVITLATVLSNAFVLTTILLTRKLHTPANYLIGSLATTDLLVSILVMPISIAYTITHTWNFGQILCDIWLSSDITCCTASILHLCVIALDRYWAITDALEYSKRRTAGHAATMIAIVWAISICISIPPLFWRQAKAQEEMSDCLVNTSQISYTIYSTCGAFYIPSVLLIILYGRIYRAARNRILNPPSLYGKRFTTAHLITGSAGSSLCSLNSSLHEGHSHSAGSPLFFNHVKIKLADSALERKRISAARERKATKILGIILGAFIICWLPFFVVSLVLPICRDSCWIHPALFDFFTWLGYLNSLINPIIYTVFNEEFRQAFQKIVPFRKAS

[27] = biological target: 5-hydroxytryptamine receptor 2B (Homo sapiens, UniProt P41595); details: Compound concentration 10.0 uM
[28] = biological target: 5-hydroxytryptamine receptor 1A (Homo sapiens) (UniProt P08908); details: Compound concentration 10.0 uM
Rattus norvegicus = organism: Rattus norvegicus; details: Compound concentration 10.0 uM
[29] = biological target: Glutamate receptor ionotropic, NMDA 2A (Homo sapiens, UniProt Q05586+Q12879); assay: GluN2A-containing NMDA receptor (Ca2+ influx) assay (EC50)
[30] = biological target: T1, Sodium-dependent dopamine transporter (Homo sapiens, UniProt Q01959); details: Compound concentration 10.0 uM
T1 sequence (Q01959 whole entry): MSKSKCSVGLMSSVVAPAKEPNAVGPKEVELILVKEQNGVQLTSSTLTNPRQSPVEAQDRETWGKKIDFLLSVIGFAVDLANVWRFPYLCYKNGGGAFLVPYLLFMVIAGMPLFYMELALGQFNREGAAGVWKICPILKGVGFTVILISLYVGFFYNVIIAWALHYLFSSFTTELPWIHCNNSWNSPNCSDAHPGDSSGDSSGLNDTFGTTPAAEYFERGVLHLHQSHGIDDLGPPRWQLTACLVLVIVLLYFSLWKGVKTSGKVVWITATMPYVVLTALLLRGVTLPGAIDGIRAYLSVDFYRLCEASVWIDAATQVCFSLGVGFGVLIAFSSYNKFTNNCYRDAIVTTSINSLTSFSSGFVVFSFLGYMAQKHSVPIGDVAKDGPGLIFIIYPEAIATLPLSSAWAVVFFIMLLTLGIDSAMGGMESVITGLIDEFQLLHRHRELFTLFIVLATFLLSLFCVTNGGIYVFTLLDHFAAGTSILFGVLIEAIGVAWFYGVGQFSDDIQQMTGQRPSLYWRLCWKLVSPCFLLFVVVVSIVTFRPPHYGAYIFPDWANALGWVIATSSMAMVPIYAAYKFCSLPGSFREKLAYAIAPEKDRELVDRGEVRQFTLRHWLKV

[31] = biological target: T1, Sodium-dependent dopamine transporter; assay: GPCRScan assay: inhibition of DAT; design: radioligand conc. used [nm] 3.6 – 16.0, parental cells stable HEK
[32] = biological target: Muscarinic acetylcholine receptor M1 (Homo sapiens) (UniProt P11229); details: Compound concentration 10.0 uM
Mu-type opioid receptor = Mu-type opioid receptor (Homo sapiens, UniProt P35372); details: Compound concentration 10.0 uM
[33] = biological target: Sodium-dependent noradrenaline transporter (Homo sapiens, UniProt P23975); details: Compound concentration 10.0 uM
[34] = biological target: Kappa-type opioid receptor (Homo sapiens, UniProt P41145); details: Compound concentration 10.0 uM

Sequence of Muscarinic acetylcholine receptor M4 (Homo sapiens) (P08173 whole entry): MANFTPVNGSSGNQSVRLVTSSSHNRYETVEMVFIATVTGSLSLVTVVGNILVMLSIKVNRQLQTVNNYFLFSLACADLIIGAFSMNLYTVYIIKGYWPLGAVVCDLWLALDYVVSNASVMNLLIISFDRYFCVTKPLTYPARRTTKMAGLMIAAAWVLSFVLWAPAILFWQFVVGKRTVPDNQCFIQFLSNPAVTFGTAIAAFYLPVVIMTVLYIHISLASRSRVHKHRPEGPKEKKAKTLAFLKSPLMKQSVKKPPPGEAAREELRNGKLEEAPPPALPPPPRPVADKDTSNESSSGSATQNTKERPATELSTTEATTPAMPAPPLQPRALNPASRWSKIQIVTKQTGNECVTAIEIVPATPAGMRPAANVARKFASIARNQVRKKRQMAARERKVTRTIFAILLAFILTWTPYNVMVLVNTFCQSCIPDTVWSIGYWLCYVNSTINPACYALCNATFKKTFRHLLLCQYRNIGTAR
Sequence of Histamine H1 receptor (P35367 whole entry): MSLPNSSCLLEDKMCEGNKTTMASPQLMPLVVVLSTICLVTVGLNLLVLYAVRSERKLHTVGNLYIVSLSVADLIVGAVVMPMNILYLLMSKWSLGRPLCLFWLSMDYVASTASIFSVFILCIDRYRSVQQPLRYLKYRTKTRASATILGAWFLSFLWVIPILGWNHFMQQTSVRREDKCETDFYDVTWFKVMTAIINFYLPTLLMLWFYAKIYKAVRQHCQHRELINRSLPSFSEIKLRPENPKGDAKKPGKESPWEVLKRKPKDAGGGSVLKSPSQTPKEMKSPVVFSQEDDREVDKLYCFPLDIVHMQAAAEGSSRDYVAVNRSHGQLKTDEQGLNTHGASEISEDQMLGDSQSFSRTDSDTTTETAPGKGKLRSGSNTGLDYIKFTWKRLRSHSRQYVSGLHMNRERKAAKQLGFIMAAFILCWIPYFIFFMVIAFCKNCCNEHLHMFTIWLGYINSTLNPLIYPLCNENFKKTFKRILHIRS
Sequence of Sigma non-opioid intracellular receptor 1 (Homo sapiens) (Q99720 whole entry): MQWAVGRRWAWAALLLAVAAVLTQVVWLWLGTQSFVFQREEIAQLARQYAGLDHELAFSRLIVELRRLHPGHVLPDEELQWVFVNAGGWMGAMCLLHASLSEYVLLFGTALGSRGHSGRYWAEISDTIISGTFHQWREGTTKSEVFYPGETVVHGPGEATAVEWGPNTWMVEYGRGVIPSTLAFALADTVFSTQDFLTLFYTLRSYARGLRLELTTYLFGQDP

## Cc1cn([C@@H](C)CC#N)c(=O)c2cc(Cn3nc(C(F)F)cc3Cl)nn12
Histamine H1 receptor
  inhibition: -2.74%
[1]
  inhibition: 33.4%
[2]
  inhibition: -0.32%
[3]
  inhibition: 20.4%
[4]
  inhibition: 1.81%
[5]
  inhibition: 27.7%
[6]
  inhibition: -5.71%
[7]
  IC50: > 30 µM (not active)
Histamine H2 receptor
  inhibition: 7.11%
[8]
  inhibition: 3.73%
[9]
  inhibition: 1.85%
[10]
  inhibition: -9.2%
D(1A) dopamine receptor
  inhibition: -0.9%
[11]
  inhibition: -9.92%
[12]
  inhibition: 0.68%
[13]
  inhibition: -1.27%
[14]
  inhibition: 15.8%
[15]
  inhibition: -6.08%
[16]
  inhibition: -5.75%
[17]
  inhibition: 4.06%
[18]
  inhibition: -4.44%
[19]
  inhibition: -8.09%
[20]
  inhibition: -5.14%
D(2) dopamine receptor
  inhibition: 5.88%
[21]
  inhibition: 1.49%
[22]
  inhibition: -9.06%
[23]
  inhibition: 19%
[24]
  inhibition: -0.27%
[25]
  inhibition: -7.46%
[26]
  inhibition: 15.5%
[27]
  inhibition: 12%
[28]
  inhibition: -6.45%
Rattus norvegicus
  inhibition: 21.3%
[29]
  EC50: > 30 µM (not active)
[30]
  inhibition: 57.6%
[31]
  pKi: < 5
[31]; read-out: Ki
  Ki: > 10 µM
[32]
  inhibition: -8.98%
Mu-type opioid receptor
  inhibition: -0.1%
[33]
  inhibition: -2.17%
[34]
  inhibition: 22.6%

Source: ChEMBL document CHEMBL5058641, “Data for DCP probe TP-050” (2022)
